We go through 23 molecules from US9206156B2, “Substituted indole derivatives” (GRÜNENTHAL GMBH, priority 2008, dated 2015).

The target in one assay is T1, ORL1 receptor (Homo sapiens, UniProt P41146).
T1 construct: expressed in transfected cells; host or cells: CHO (recombinant CHO-ORL1 cells), membranes
Briefly: ORL1 receptor binding assay with 3H-nociceptin/orphanin FQ (WGA-SPA beads). Particulars: c=1 μM test substance; 0.5 nM 3H-nociceptin/orphanin FQ; membranes of recombinant CHO-ORL1 cells. The method, then:
Measurement of ORL1 Binding
The cyclohexane derivatives having the general formula I were investigated in a receptor binding assay with ^3H-nociceptin/orphanin FQ with membranes of recombinant CHO—ORL1 cells. This test system was conducted in accordance with the method described by Ardati et al. (Mol. Pharmacol., 51, 1997, p. 816-824). The concentration of ^3H-nociceptin/orphanin FQ in these tests was 0.5 nM. The binding assays were carried out with 20 μg amounts of membrane protein per 200 μl batch in 50 mM Hepes, pH 7.4, 10 mM MgCl2 and 1 mM EDTA. The binding to the ORL1 receptor was determined using 1 mg amounts of WGA-SPA beads (Amersham-Pharmacia, Freiburg, Germany), by incubation of the batch for one hour at room temperature and subsequent measurement in a Trilux scintillation counter (Wallac, Finland). The affinity is given in Table 1 as the nanomolar Ki value or in % inhibition at c=1 μM.

The target in a further assay is T2, human μ-opiate receptor (Homo sapiens, UniProt P35372).
T2 construct: purchased NEN, Zaventem, Belgium RB-HOM; host or cells: CHO-K1 cells (membrane preparation)
Put plainly: μ-opiate receptor binding assay with [3H] naloxone (WGA-SPA beads). The conditions noted are these: 1 μmol/l test substance, 1 nmol/l [3H] naloxone, CHO-K1 cell membranes expressing human μ-opiate receptor. Here is the method:
The receptor affinity to the human μ-opiate receptor was determined in a homogeneous batch in microtitre plates. To this end, dilution series of the substituted indole derivative to be tested were incubated for 90 minutes at room temperature with a receptor membrane preparation (15-40 μg protein per 250 μl incubation batch) of CHO-K1 cells, which express the human μ-opiate receptor (RB—HOM receptor membrane preparation from NEN, Zaventem, Belgium), in the presence of 1 nmol/l of the radioactive ligand [^3H] naloxone (NET719, NEN, Zaventem, Belgium) and 1 mg of WGA-SPA beads (wheat germ agglutinin SPA beads from Amersham/Pharmacia, Freiburg, Germany) in a total volume of 250 μl. 50 mmol/l tris-HCl supplemented with 0.05 wt. % sodium azide and 0.06 wt. % bovine serum albumin were used as the incubation buffer. In order to determine the non-specific binding, 25 μmol/l of naloxone were also added. At the end of the ninety-minute incubation period the microtitre plates were centrifuged for 20 minutes at 1000 g and the radioactivity was measured in a β counter (Microbeta-Trilux, PerkinElmer Wallac, Freiburg, Germany). The percentage displacement of the radioactive ligand from its binding to the human μ-opiate receptor was determined at a test substance concentration of 1 μmol/l and stated as the percentage inhibition (% inhibition) of the specific binding. In some cases the percentage displacement due to differing concentrations of the compounds having the general formula I to be tested was used to calculate the IC50 inhibition concentrations which bring about a 50-percent displacement of the radioactive ligand. Ki values for the test substances were obtained by extrapolation using the Cheng-Prusoff equation.

Structures are written as SMILES.

T2 sequence (P35372 whole entry): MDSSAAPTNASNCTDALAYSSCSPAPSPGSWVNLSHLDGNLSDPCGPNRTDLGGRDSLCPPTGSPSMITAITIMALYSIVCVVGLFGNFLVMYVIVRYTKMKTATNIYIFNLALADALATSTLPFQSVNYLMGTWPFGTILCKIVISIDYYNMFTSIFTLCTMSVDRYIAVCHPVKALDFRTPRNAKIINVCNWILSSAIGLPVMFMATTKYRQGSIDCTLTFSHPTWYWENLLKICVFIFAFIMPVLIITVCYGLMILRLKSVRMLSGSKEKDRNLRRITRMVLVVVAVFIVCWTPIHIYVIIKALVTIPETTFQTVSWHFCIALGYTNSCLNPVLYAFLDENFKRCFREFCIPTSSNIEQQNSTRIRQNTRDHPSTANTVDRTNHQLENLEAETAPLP
T1 sequence (P41146 whole entry): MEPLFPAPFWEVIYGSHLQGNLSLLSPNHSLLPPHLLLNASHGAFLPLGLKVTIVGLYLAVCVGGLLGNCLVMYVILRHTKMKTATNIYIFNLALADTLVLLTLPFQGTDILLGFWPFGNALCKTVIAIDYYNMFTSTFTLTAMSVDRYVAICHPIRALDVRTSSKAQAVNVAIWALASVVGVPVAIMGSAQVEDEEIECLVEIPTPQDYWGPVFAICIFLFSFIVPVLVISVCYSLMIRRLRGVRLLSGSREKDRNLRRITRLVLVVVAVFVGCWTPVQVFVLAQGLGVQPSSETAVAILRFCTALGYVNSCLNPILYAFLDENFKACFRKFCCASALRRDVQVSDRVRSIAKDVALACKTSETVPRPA

Regarding `CN(C)C1(c2ccccc2)CCN(C(=O)C2CCCN(C(=O)c3cc4cc(F)ccc4[nH]3)C2)CC1` (centres unmarked) [Example 104, (4-(dimethylamino)-4-phenylpiperidin-1-yl)(1-(5-fluoro-1H-indole-2-carbonyl)piperidin-3-yl)methanone], the inhibition (as a rule, the relative decrease from the control value, in per cent) at 1 µM was determined as 64% on ORL1 receptor and 89% on human μ-opiate receptor.

For the molecule `CN(CCCN1CCC(c2ccccc2)(N(C)C)CC1)C(=O)Cc1c[nH]c2ccc(Br)cc12` [Example 63, 2-(5-Bromo-1H-indol-3-yl)-N-(3-(4-(dimethylamino)-4-phenylpiperidin-1-yl)propyl)-N-methylacetamide], the inhibition at 1 µM came out at 41% on ORL1 receptor and 81% on human μ-opiate receptor.

On to `CN(C)C1(c2ccccc2)CCN(C(=O)C2CCCN(Cc3cccc4cc[nH]c34)C2)CC1` (centres unmarked) [Example 158, (1-((1H-indol-7-yl)methyl)piperidin-3-yl)(4-(dimethylamino)-4-phenylpiperidin-1-yl)methanone], for which the inhibition at 1 µM on ORL1 receptor came to 61%; at human μ-opiate receptor it was 93%.

Take `CN(C)C1(c2ccccc2)CCN(C(=O)C2CCCN(C(=O)Cc3c[nH]c4cc(F)ccc34)C2)CC1` (centres unmarked) [Example 124, 1-(3-(4-(dimethylamino)-4-phenylpiperidine-1-carbonyl)piperidin-1-yl)-2-(6-fluoro-1H-indol-3-yl)ethanone]: the inhibition at 1 µM is 43% on ORL1 receptor and 64% at human μ-opiate receptor.

`COc1ccc2[nH]c(C(=O)N(C)CCCN3CCC(c4ccccc4)(N(C)C)CC3)cc2c1` [Example 66, N-(3-(4-(Dimethylamino)-4-phenylpiperidin-1-yl)propyl)-5-methoxy-N-methyl-1H-indole-2-carboxamide]: the inhibition at 1 µM is 33% on ORL1 receptor and 71% on human μ-opiate receptor.

As for `CN(CCN1CCC(c2ccccc2)(N(C)C)CC1)Cc1ccc2cc[nH]c2c1` [Example 184, 1-(2-(((1H-indol-6-yl)methyl)(methy)amino)ethyl)-N,N-dimethyl-4-phenylpiperidin-4-amine], the “% Inhibition (ORL1) at 1 μM” value at ORL1 receptor amounted to 95%. Further, the “% Inhibition (μ) at 1 μM” value on human μ-opiate receptor (1 µM) was determined as 99%.

Regarding `CN(C(=O)Cc1c[nH]c2ccc(Br)cc12)C(C(=O)N1CCC(c2cccs2)(N(C)C)CC1)c1ccccc1` (centres unmarked) [Example 100, 2-(5-bromo-1H-indol-3-yl)-N-(2-(4-(dimethylamino)-4-(thiophen-2-yl)piperidin-1-yl)-2-oxo-1-phenylethyl)-N-methylacetamide], the inhibition at 1 µM at ORL1 receptor worked out at 69%; at human μ-opiate receptor, 95%.

With `CCCCC1(N(C)C)CCN(CCN(C)C(=O)Cc2c[nH]c3cc(F)ccc23)CC1` [Example 44, N-(2-(4-Butyl-4-(dimethylamino)piperidin-1-yl)ethyl)-2-(6-fluoro-1H-indol-3-yl)-N-methylacetamide], the “% Inhibition (ORL1) at 1 μM” value at ORL1 receptor worked out at 50%. For the same molecule, the “% Inhibition (μ) at 1 μM” value at human μ-opiate receptor stood at 92%.

On to `CN(C)C1(c2cccs2)CCN(C(=O)CC(NC(=O)c2ccc3ccn(C)c3c2)c2ccccc2)CC1` (centres unmarked) [Example 101, N-(3-(4-(dimethylamino)-4-(thiophen-2-yl)piperidin-1-yl)-3-oxo-1-phenylpropyl)-1-methyl-1H-indole-6-carboxamide], for which the inhibition at 1 µM on ORL1 receptor is 68%; on human μ-opiate receptor, 96%.

Regarding `CN(C)C1(c2ccccc2)CCN(C(=O)C2CCCN(Cc3ccc4cc[nH]c4c3)C2)CC1` (centres unmarked) [Example 152, (1-((1H-indol-6-yl)methyl)piperidin-3-yl)(4-(dimethylamino)-4-phenylpiperidin-1-yl)methanone], the results for the inhibition at 1 µM at ORL1 receptor and on human μ-opiate receptor were 80% and 93%, respectively.

`CN(C)C1(c2cccs2)CCN(C(=O)CC(NCc2cccc3[nH]ccc23)c2ccccc2)CC1` (centres unmarked) [Example 174, 3-((1H-indol-4-yl)methylamino)-1-(4-(dimethylamino)-4-(thiophen-2-yl)piperidin-1-yl)-3-phenylpropan-1-one]: the inhibition at 1 µM is 68% at ORL1 receptor and 92% at human μ-opiate receptor.

Regarding `CN(C)C1(c2ccccc2)CCN(C(=O)C2CCCN(C(=O)c3cccc4c3ccn4C)C2)CC1` (centres unmarked) [Example 130, (4-(dimethylamino)-4-phenylpiperidin-1-yl)(1-(1-methyl-1H-indole-4-carbonyl)piperidin-3-yl) methanone], the results for the inhibition at 1 µM on ORL1 receptor and on human μ-opiate receptor were 36% and 51%, respectively.

As for `CCCCC1(N(C)C)CCN(CCN(C)C(=O)Cc2c[nH]c3cc(F)ccc23)CC1` [Example 112, N-(2-(4-butyl-4-(dimethylamino)piperidin-1-yl)ethyl)-2-(6-fluoro-1H-indol-3-yl)-N-methylacetamide], the inhibition at 1 µM at ORL1 receptor was found to be 59%; on human μ-opiate receptor it was 92%.

Regarding `CC(C)C(CC(=O)N(C)C(C(=O)N1CCC(c2cccs2)(N(C)C)CC1)c1ccccc1)c1c[nH]c2ccccc12` (centres unmarked) [Example 105, N-(2-(4-(dimethylamino)-4-(thiophen-2-yl)piperidin-1-yl)-2-oxo-1-phenylethyl)-3-(1H-indol-3-yl)-N,4-dimethylpentanamide], the inhibition at 1 µM on ORL1 receptor stood at 63%; at human μ-opiate receptor it was 91%.

As for `CN(C)C1(c2ccccc2)CCN(C(=O)CCNC(=O)CCc2c[nH]c3ccccc23)CC1` [Example 98, N-(3-(4-(dimethylamino)-4-phenylpiperidin-1-yl)-3-oxopropyl)-3-(1H-indol-3-yl)propanamide], the inhibition at 1 µM on ORL1 receptor stood at 73%; on human μ-opiate receptor, 85%.

As for `CN(CCCN1CCC(c2ccccc2)(N(C)C)CC1)C(=O)C1CCCc2c1[nH]c1ccc(Cl)cc21` (centres unmarked) [Example 35, 6-Chloro-N-(3-(4-(dimethylamino)-4-phenylpiperidin-1-yl)propyl)-N-methyl-2,3,4,9-tetrahydro-1H-carbazole-1-carboxamide], the values for the inhibition at 1 µM at ORL1 receptor and on human μ-opiate receptor were 79% and 57%, respectively.

For the molecule `CN(C)C1(c2ccccc2)CCN(C(=O)C2CCCN(C(=O)CCc3cn(C)c4ccccc34)C2)CC1` (centres unmarked) [Example 133, 1-(3-(4-(dimethylamino)-4-phenylpiperidine-1-carbonyl)piperidin-1-yl)-3-(1-methyl-1H-indol-3-yl)propan-1-one], the inhibition at 1 µM at ORL1 receptor was determined as 32%; on human μ-opiate receptor it was 71%.

On to `CCCCC1(N(C)C)CCN(CCN(C)Cc2ccc3cc[nH]c3c2)CC1` [Example 144, 1-(2-(((1H-indol-6-yl)methyl)(methy)amino)ethyl)-4-butyl-N,N-dimethylpiperidin-4-amine], for which the “% Inhibition (ORL1) at 1 μM” value at ORL1 receptor is recorded as 39%. At human μ-opiate receptor, the “% Inhibition (μ) at 1 μM” value came to 90%.

For the molecule `CN(C)C1(c2cccs2)CCN(C(=O)CC(NCc2c[nH]c3ccccc23)c2ccccc2)CC1` (centres unmarked) [Example 164, 3-((1H-indol-3-yl)methylamino)-1-(4-(dimethylamino)-4-(thiophen-2-yl)piperidin-1-yl)-3-phenylpropan-1-one], the inhibition at 1 µM was 82% on ORL1 receptor and 96% on human μ-opiate receptor.

On to `CN(C)C1(c2cccs2)CCN(C(=O)CC(NC(=O)c2cccc3c2ccn3C)c2ccccc2)CC1` (centres unmarked) [Example 108, N-(3-(4-(dimethylamino)-4-(thiophen-2-yl)piperidin-1-yl)-3-oxo-1-phenylpropyl)-1-methyl-1H-indole-4-carboxamide], for which the inhibition at 1 µM at ORL1 receptor turned out to be 63%; at human μ-opiate receptor, 98%.

`CN(C)C1(c2ccccc2)CCN(C(=O)CCNCc2cccc3cc[nH]c23)CC1` [Example 171, 3-((1H-indol-7-yl)methylamino)-1-(4-(dimethylamino)-4-phenylpiperidin-1-yl)propan-1-one]: the figures for the inhibition at 1 µM at ORL1 receptor and at human μ-opiate receptor were 73% and 97%, respectively.

`CN(CCN1CCC(c2ccccc2)(N2CCCC2)CC1)Cc1c[nH]c2ccc(Br)cc12` [Example 153, N-((5-bromo-1H-indol-3-yl)methyl)-N-methyl-2-(4-phenyl-4-(pyrrolidin-1-yl)piperidin-1-yl)ethanamine] displayed an inhibition at 1 µM at human μ-opiate receptor of 93%.

Take `CN(CCN1CCC(c2ccccc2)(N2CCCC2)CC1)C(=O)c1ccc2cc[nH]c2c1` [Example 54, N-Methyl-N-(2-(4-phenyl-4-(pyrrolidin-1-yl)piperidin-1-yl)ethyl)-1H-indole-6-carboxamide]: at 1 µM the inhibition at human μ-opiate receptor was 15%.
